Each structure is given as a SMILES string.

Series [1] concerns the target T1, PD1/PD-L1 (Homo sapiens, UniProt Q9NZQ7). Nature of the series: PD-1/PD-L1 homogeneous time-resolved fluorescence (HTRF) binding experiment. Conditions: HTRF (TR-FRET), PD-L1-biotin, PD1-Eu. Also on record: purchased BPS Biosciences. The source says:
Experimental Example 1: PD-1/PD-L1 Homogenouse Time-Resolved Fluorescence (HTRF) Binding Experiment
When the PD-1 molecule as the donor is very close to the PD-L1 molecule as the acceptor, the donor molecule will transfer the energy to the receptor molecule, which in turn causes the receptor molecule to emit fluorescence. The ability of small molecules to prevent the binding of PD-L1 to PD-1 can be tested by detecting the intensity of fluorescence. A homogeneous time-resolved fluorescence (HTRF) binding experiment is used to detect the ability of the compounds of the present disclosure to inhibit the binding of PD-1/PD-L1.
PD1/PD-L1 TR-FRET detection kit was purchased from BPS Biosciences. Nivo multi-label analyzer (PerkinElmer).
PD1-Eu, Dye-labeled acceptor, PD-L1-biotin and compounds to be tested were diluted with the buffer in the kit. The compounds to be tested were subjected to 5-fold dilution to eight concentration gradients with a row gun. That is, from 40 μM to 0.5 nM, the DMSO concentration was 4%, and a double-well experiment was set up. 5 μL of inhibitor with each concentration gradient were added to the microwell plate, and 5 μL buffer containing 4% DMSO and 5 μL PD-L1-biotin (PD-L1-biotin) (60 nM) were added into well with the maximum signal (Max) and the well with the minimum signal (Min), only 5 μL of buffer was added to the well with the minimum signal (Min), and the incubation was conducted at 25° C. for 20 minutes. After the incubation was completed, 5 μL of diluted PD1-Eu (10 nM) and […] were added to each well. The reaction system was placed at 25° C. for 90 minutes. The TR-FRET signal was read by a multi-label analyzer after the reaction was completed.
Using the equation (sample−Min)/(Max−Min)×100% to convert the raw data into inhibition rate, and the IC50 value can be obtained by curve fitting with four parameters (obtained from log(inhibitor) vs. response—Variable slope mode in GraphPad Prism). Table 1 provides the inhibitory activity of the compounds of the examples of the present disclosure on PD1/PD-L1 binding
Target sequence in this assay (Q9NZQ7 19-239 limits assumed): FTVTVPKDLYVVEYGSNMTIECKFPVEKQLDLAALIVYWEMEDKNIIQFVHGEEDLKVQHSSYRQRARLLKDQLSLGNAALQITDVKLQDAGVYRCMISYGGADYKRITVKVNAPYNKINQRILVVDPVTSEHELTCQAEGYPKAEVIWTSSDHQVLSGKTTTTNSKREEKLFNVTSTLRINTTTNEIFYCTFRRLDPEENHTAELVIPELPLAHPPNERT

The target in series [2] is T1, PD1/PD-L1. Kind of series: NFAT activity test (TCR Activitor/PD-L1 CHO cells with PD-1/NFAT Reporter-Jurkat cells). Conditions: TCR Activitor/PD-L1 CHO cells + PD-1/NFAT Reporter-Jurkat cells, 5 hours, luciferase; for IC50: read-out: IC50, inhibitory activity on PD1/PD-L1 binding (NFAT activity test). Also noted: host or cells: TCR Activitor/PD-L1 CHO cells; PD-1/NFAT Reporter-Jurkat cells. It counts as cell-based. The source says:
Experimental Example 3: NFAT Activity Test
The engineered T cell expresses PD-1 molecules and T cell receptor (TCR) on the surface, which can activate the NFAT signaling pathway of T cells after co-culturing with engineered antigen presenting cells (APCs). Expression of PD-L1 molecules on APCs can effectively attenuate the NFAT signaling pathway in T cells. PD-L1 inhibitors can be used effectively block the PD-1/PD-L1 regulatory mechanism, thereby reversing the weakened NFAT signaling pathway. After being pretreated with APC, the small molecule is co-cultured with T cells, then the expression of luciferase was detected to indirectly reflect the activation of the NFAT pathway in T cells.
The PD1/PD-L1 NFAT detection kit was purchased from BPS Biosciences. Birght-Glo reagent was purchased from Promega. Nivo multi-label analyzer (PerkinElmer).
The TCR Activitor/PD-L1 CHO cells with a growth confluence of 80% were plated into the plate at 35,000 cells per well and placed in a 37° C. cell culture incubator overnight; the compounds to be tested were diluted 5-fold to the 8th concentration, from 20 μM to 0.25 nM, and the DMSO concentration was 2%, a double-well experiment was set up. The TCR Activitor/PD-L1 CHO cell supernatant was discarded, 50 μl of compound working solution was added to each well, incubated at 37° C. for 30 minutes; after the incubation was completed, 50 μL of PD-1/NFAT Reporter-Jurkat cell suspension with a concentration of 4*10^5 cells/mL was added to each well, incubated at 37° C. for 5 hours. After the incubation was completed, 100 μL Bright-Glo was added to each well, and after mixing, the chemiluminescence signal was detected by a Nivo multi-label analyzer.
Using the equation (sample−Min)/(Max−Min)×100% to convert the raw data into inhibition rate, and the IC50 value can be obtained by curve fitting with four parameters (obtained from log(inhibitor) vs. response—Variable slope mode in GraphPad Prism). Table 3 provides the inhibitory activity of the compounds of the examples of the present disclosure on PD1/PD-L1 binding.
Target sequence in this assay (Q9NZQ7 19-290): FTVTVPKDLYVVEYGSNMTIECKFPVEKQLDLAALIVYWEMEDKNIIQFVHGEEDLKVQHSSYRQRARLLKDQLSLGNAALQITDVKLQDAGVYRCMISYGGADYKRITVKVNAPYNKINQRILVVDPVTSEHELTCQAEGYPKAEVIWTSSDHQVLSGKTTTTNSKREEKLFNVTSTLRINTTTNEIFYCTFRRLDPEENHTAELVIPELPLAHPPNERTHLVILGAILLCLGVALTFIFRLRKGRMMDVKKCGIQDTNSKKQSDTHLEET

Series [3] can be described thus: Pharmacokinetic test in C57BL/6 mice. Format: in vivo. Conditions: mouse, plasma, male C57BL/6 mice; for bioavailability: PO 10 mg/kg vs IV 1 mg/kg, read-out: Bioavailability F; for Cmax / clearance / half-life / Vd: IV 1 mg/kg; for Cmax: PO 10 mg/kg (route not given for Cmax), read-out: Peak concentration Cmax; for clearance: read-out: Clearance CL; for half-life: read-out: Half-life T1/2 (IV) (converted); for Vd: read-out: Tissue distribution Vdss; for AUC(0-t): PO 10 mg/kg, read-out: Area under the drug-time curve AUC0-last PO. The procedure: Experimental Example 4: Pharmacokinetic Test
Experimental purpose: To study the pharmacokinetics of compounds in C57BL/6 mice.
Experimental materials: C57BL/6 mice (male, 8 weeks old, body weight 25 g-30 g)
Experimental operation: The pharmacokinetic characteristics of rodents after intravenous (IV) and oral (PO) administration of compounds were tested in standard protocols. In the experiment, the candidate compounds were formulated into 1 mg/mL clear solutions, and administered to mice via a single intravenous injection and oral administration. The vehicle of intravenous and oral administration was 5% DMSO/5% polyethylene glycol 15-hydroxystearate (Solutol)/90% aqueous solution. Four male C57BL/6 mice were used in the experiment, wherein two mice were administered intravenously at a dose of 1 mg/kg, and the plasma samples were collected 0.0833, 0.25, 0.5, 1, 2, 4, 6, 8 and 24 h after administration, the other two mice were given oral gavage at a dose of 10 mg/kg, and the plasma samples were collected 0.25, 0.5, 1, 2, 4, 6, 8, and 24 h after administration. Whole blood samples within 24 hours were collected, centrifuged at 3000 g for 15 minutes, and the supernatant was separated to obtain plasma samples. Acetonitrile solution containing internal standard was added thereto to precipitate proteins, the mixture was thoroughly mixed and centrifuged to obtain the supernatant for injection. The plasma concentration was quantified by LC-MS/MS analysis method, and the pharmacokinetic parameters were calculated, such as peak concentration (Cmax), clearance (CL), half-life (T1/2), […] (Vdss), area under the drug-time curve (AUC0-last), bioavailability (F) and so on.

In series [4] the target is T2, PD-L1 in MDA-MR-231 cells (Homo sapiens, UniProt Q9NZQ7).
T2 construct: endogenous in cells; host or cells: MDA-MB-231
T2 sequence (Q9NZQ7 19-290): as above
Kind of series: Effect on expression level of PD-L1 in MDA-MR-231 cells (FACS). It counts as cell-based. Conditions: 24 hours incubation, FACS detection of cell surface PD-L1. As to the method:
Experimental Example 2: Using MDA-MR-231 Cells to Detect the Effect of Compounds on the Expression Level of PD-L1
The use of a triple-negative breast cancer cell line (MDA-MB-231) is an indirect method to assess PD-L1 endocytosis. PD-L1 molecules on the cell surface can be degraded by lysosomal and proteasome pathways, and small molecule inhibitors are added to induce PD-L1 endocytosis. After co-incubating small molecules with MDA-MB-231 cells for 24 hours, flow cytometry (Fluorescence-activated Cell Sorting, FACS) is used to detect the content of PD-L1 on the cell surface, which can indirectly reflect the effect of small molecule-induced PD-L1 endocytosis. Flow cytometry (FACS) is used to detect the effect of the compounds of the present disclosure on the expression level of PD-L1 in MDA-MR-231 cells.
Phosphate buffer (DPBS), 1640 medium, penicillin-streptomycin, fetal bovine serum, non-essential amino acids, 2-hydroxy-1-ethanethiol (2-ME), human interferon γ, LIVE/DEAD staining solution, staining buffer, fixation buffer, 0.25% trypsin, EDTA, anti-human PD-L1, anti-human PD-L1 isotype.
1640 complete medium preparation: 50 mL of fetal bovine serum, 5 mL of non-essential amino acids, 5 mL of penicillin-streptomycin and 0.5 mL of 2-hydroxy-1-ethanethiol were added to 439.5 mL of 1640 medium, and evenly mixed.
10 mM EDTA preparation: 1 mL of 0.5M EDTA was added to 49 mL of DPBS, and evenly mixed.
1) MDA-MB-231 cell counting and plating: The culture flask was taken out, the medium was removed and the culture flask was rinsed once with DPBS. After the culture flask was rinsed, 3 mL of 0.25% trypsin was added to the culture flask and the culture flask was placed in a 37° C. incubator for 1.5 min. The culture flask was taken out, 9 mL of 1640 complete medium was added to stop the reaction, the cells was transferred to a 50 mL centrifuge tube, and centrifuged at 1000 rpm for 5 min at 37° C. An appropriate volume of medium was added to re-suspend the cells according to the number of cells, and the number of cells was counted with a cell counter. The cell concentration was adjusted to 5×10^5 cells/mL with medium. Planking: A volume of 200 μL of cell suspension was added to each well of a 96-well plate, ensure that the number of cells in each well was 1×10^5. The cells were incubated overnight in an incubator. 2) Drug incubation: 100-fold dilution of compounds were prepared, and the drug was subjected to a 5-fold gradient dilution. 2 μL of each 100-fold dilution of compounds were added to each well. The cells were incubated in an incubator at 37° C. for 24 hours. 3) PD-L1 cell staining and FACS detection: the culture plate was taken out and the supernatant medium was discarded. The cells were washed once with 200 μL 1×PBS. 100 μL of EDTA (final concentration of 10 mM) was added to the cell suspension, and the cell suspension was treated at 37° C. for 10 min. Then after the cell suspension was centrifuged at 1500 rpm for 5 min, the cell suspension was washed once with 200 μL of staining solution. Staining: anti-human PD-L1 (2 μL per well) and LIVE/DEAD staining solution (1:1000) were diluted in staining solution, 50 μL of the staining solution was added to each well, and the staining was conducted at 4° C. for 30 min. Then the solution was washed twice with 200 μL of staining solution. Fixation: 100 μL of fixing solution was added to each well, the fixation was conducted at 4° C. for 15 min. The solution was then washed twice with 200 μL of staining solution, and 150 μL of solution was added to re-suspend the cells, followed by FACS detection.
Table 2 provides the effects of the compounds of the examples of the present disclosure on the expression level of PD-L1 in MDA-MR-231 cells.

`Cc1cc(C(=O)Nc2cccc(-c3cccc(NC(=O)c4ccc(CNCCO)cn4)c3C)c2C)nc2c1CN(CCO)CC2` [Compound 2] showed an IC50 on PD1/PD-L1 [1] of 2.1 nM.
For the molecule `Cc1cc(C(=O)Nc2cccc(-c3cccc(NC(=O)c4ccc(CNCCO)cn4)c3C)c2C#N)nc2c1CCN(CCO)C2` [Compound 7], the IC50 on PD1/PD-L1 [1] came to 3.22 nM. Besides, at PD1/PD-L1 [2], the “Maximum effect (induction fold)” value is 3.38 induction fold and the IC50 stood at 38.4 nM.
For `COc1cc(C(=O)Nc2cccc(-c3cccc(-c4cnc(CN5CC(C)(O)C5)c(OC)n4)c3Cl)c2Cl)nc2c1CCN(CCO)C2` [Compound 42], in series [3], the bioavailability is 61.6%, the Cmax is 260 nM, the clearance was found to be 36.6 mL/min/kg and the half-life was 16.4 h. For the same molecule, in series [3], the Vd is 40.8 L/kg and the AUC(0-t) was 3.1 µM·h. The molecule also returned an IC50 in series [4] of 9.48 nM. On PD1/PD-L1 [2], the “Maximum effect (induction fold)” value is given as 4.39 induction fold and the IC50 is 23.4 nM.
On to `COc1nc(-c2cccc(-c3cccc(NC(=O)c4cc(C)c5c(n4)CN(CCO)CC5)c3C#N)c2Cl)cnc1CN1CC(O)C1` [Compound 47], for which the IC50 was found to be 37.2 nM in series [4] and 52 nM at PD1/PD-L1 [2]. For the same molecule, the “Maximum effect (induction fold)” value on PD1/PD-L1 [2] amounted to 4.01 induction fold.
The matching figures for `COc1nc(-c2cccc(-c3cccc(NC(=O)c4cc(OC(F)F)c5c(n4)CN(CCO)CC5)c3Cl)c2Cl)cnc1CN1CC(O)C1` [Compound 48]: 8.93 nM, 21.2 nM and 3.80 induction fold.
In turn, `COc1nc(-c2cccc(-c3cccc(NC(=O)c4cc(C)c5c(n4)CN(CCC(C)O)CC5)c3Cl)c2Cl)cnc1CN1CC(O)C1` (stereo not drawn) [Compound 49] displayed an IC50 in series [4] of 33.8 nM. At PD1/PD-L1 [2], the “Maximum effect (induction fold)” value worked out at 5.30 induction fold and the IC50 is 175 nM.
For `COc1nc(-c2cccc(-c3cccc(NC(=O)c4cc(C)c5c(n4)CN(CCO)C5)c3Cl)c2Cl)cnc1CN1CC(O)C1` [Compound 50], in series [3], the bioavailability was 63.5%, the Cmax stood at 221 nM, the clearance was 85.5 mL/min/kg and the half-life is 3.72 h. In addition, in series [3], the Vd amounted to 18.3 L/kg and the AUC(0-t) stood at 1.66 µM·h. For the same molecule, on PD1/PD-L1 [2], the “Maximum effect (induction fold)” value was found to be 4.55 induction fold and the IC50 worked out at 45.8 nM.
In series [4], `COc1nc(-c2cccc(-c3cccc(NC(=O)c4cc(OCc5cncc(C#N)c5)c5c(n4)CN(CCO)CC5)c3Cl)c2Cl)cnc1CN1CC(O)C1` [Compound 51] registered an IC50 of 25.8 nM. On PD1/PD-L1 [2], the “Maximum effect (induction fold)” value is 4.28 induction fold and the IC50 is 47.9 nM.

These data come from patent publication US20220402917A1, “COMPOUND AS SMALL MOLECULE INHIBITOR PD-1/PD-L1 AND APPLICATION THEREOF” (MEDSHINE DISCOVERY INC., priority 2019, published 2022).
